According to US12421496B2, “Method for producing natural killer cell and use thereof” (KOREA RESEARCH INSTITUTE OF BIOSCIENCE AND BIOTECHNOLOGY, priority 2017, dated 2025):

B1: IL-7: human interleukin 7, cytokine additive (protein, UniProt P13232 26-177, looked up)
Interleukin-7: DCDIEGKDGKQYESVLMVSIDQLLDSMKEIGSNCLNNEFNFFKRHICDANKEGMFLFRAARKLRQFLKMNSTGDFDLHLLKVSEGTTILLNCTGQVKGRKPAALGEAQPTKSLEENKSLKEQKKLNDLCFLKRLLQEIKTCWNKILMGTKEH

Columns and labels:
[1] = tested on: PBMC cells into which OSKM was introduced; test: Efficiency of direct reprogramming depending on composition of NKIM-II medium; assay type: cell-based, human; conditions: added to NKIM-II medium, cultured for 29 days after 6 days in NKIM-I
Experimental: (§1) After introducing reprogramming factors (Oct4, Sox2, Klf4, and Myc) into PBMC cultured in the NKIM-I medium and NKIM-II medium, a mixture additive was added to the medium for analysis to promote the production capacity of natural killer cells produced by direct reprogramming.
In the case of NKIM-II medium, after introducing OSKM into PBMC cells, the following day, 1×10^5 transformed cells were added to a 48-well culture dish and cultured in NKIM-I medium for 6 days, and then these cells were cultured for 29 days in a medium in which StemRegenin I, which is an aryl hydrocarbon receptor antagonist, CH-223191, or FICZ, which is an aryl hydrocarbon receptor agonist, was added to NKIM-II.

SW620 = test: In vivo anti-cancer effect, subcutaneous SW620 tumor in nude mice; design: species or system Balb/c-nude mouse; conditions: 2 mg/kg i.p. every other day for two weeks; day 28
Experimental: In addition, in vivo experiments were performed using mice to verify the anti-cancer effect of induced natural killer cells. The day after subcutaneous injection of 2×10^6 Sw620 into the back of 8-week-old nude mice (Balb/c-nude mouse, average weight 20 g to 25 g), induced natural killer cells (5×10^6, 1.5×10^7) and 2 mg/kg of doxorubicin were injected. Induced natural killer cells were injected intravenously (i.v.) twice on D1 and D4, and doxorubicin was injected intraperitoneally (i.p) every two days (every other day) for two weeks. On the 28th day, the mice of each group were sacrificed by cervical dislocation technique, and the protruding cancer masses formed under the skin of the mice of each group were extracted. The extracted Sw620 cancer was compared by group to confirm the anti-cancer effect of induced natural killer cells (FIG. 13A).

[2] = tested on: PBMC into which OSKM was introduced; test: Efficiency of direct reprogramming depending on composition of NKIM-I medium; assay type: cell-based, human; conditions: single additive in NKIM-I medium compared with the condition without additives
Experimental: as §1
Specifically, in the case of NKIM-I medium, after introducing OSKM into PBMC, the following day, 1×10^5 transformed cells were added to a 48-well culture dish in the reprogramming culture process with different combinations of 5 μM CHIR 99021, 2 mM LiCl, […], and 20 ng/mL human IL-15 in NKIM-I medium, and the production capacity of CD56+ induced natural killer cells was thereby confirmed.

PBMC (CD34−CD56−) cells = test: Role of GSK3β inhibitor in direct reprogramming from PBMC to natural killer cells, flow cytometry; assay type: cell-based, human; conditions: when CT99021 (5 μM) was not added to NKIM-I medium, compared with added; 24th day
Experimental: On the 24th day when direct reprogramming was started as in Example 1, the cells were recovered and stained using antibodies against CD56 and CD4 attached with fluorescence and then the group of natural killer cells (CD56^+ and CD4^−) was analyzed by flow cytometry.

Molecule | yield of induced natural killer cells [1] | production of CD56+CD3− induced natural killer cells [2] | other results
O=Cc1c2[nH]c3ccccc3c2cc2[nH]c3ccccc3c12 [FICS] | significantly reduced |  | 
Cc1ccccc1N=Nc1ccc(NC(=O)c2ccnn2C)c(C)c1 [CH-223191] | significantly increased |  | 
COc1cccc2c1C(=O)c1c(O)c3c(c(O)c1C2=O)C[C@@](O)(C(=O)CO)C[C@@H]3O[C@H]1C[C@H](N)[C@H](O)[C@H](C)O1 [doxorubicin] |  |  | tumor size (SW620): 262 mm^3
[Cl-].[Li+] [LiCl] |  | effect of promoting the production | 
CC(C)n1cnc2c(NCCc3ccc(O)cc3)nc(-c3csc4ccccc34)nc21.Cl [StemRegenin I, (4-(2-((2-benzo[b]thiphen-3-yl)-9-isopropyl-9H-purin-6-yl)amino)ethyl)phenol hydrochloride] | significantly increased | effect of promoting the production | 
Cc1c[nH]c(-c2cnc(NCCNc3ccc(C#N)cn3)nc2-c2ccc(Cl)cc2Cl)n1 [CT99021] |  | effect of promoting the production | differentiation into natural killer cells (CD56+ and CD4−) (PBMC (CD34−CD56−) cells): significantly lowered
IL-15: human interleukin 15, cytokine additive |  | effect of promoting the production | 
B1 |  | effect of promoting the production | 
